The values below come from ChEMBL document CHEMBL5465560, “Selectivity Literature for EUbOPEN Chemogenomic Library” (2024).

Test [1] concerns the target T1, Interleukin-1 receptor-associated kinase 3 (Homo sapiens) (UniProt Q9Y616).
T1 sequence (whole entry): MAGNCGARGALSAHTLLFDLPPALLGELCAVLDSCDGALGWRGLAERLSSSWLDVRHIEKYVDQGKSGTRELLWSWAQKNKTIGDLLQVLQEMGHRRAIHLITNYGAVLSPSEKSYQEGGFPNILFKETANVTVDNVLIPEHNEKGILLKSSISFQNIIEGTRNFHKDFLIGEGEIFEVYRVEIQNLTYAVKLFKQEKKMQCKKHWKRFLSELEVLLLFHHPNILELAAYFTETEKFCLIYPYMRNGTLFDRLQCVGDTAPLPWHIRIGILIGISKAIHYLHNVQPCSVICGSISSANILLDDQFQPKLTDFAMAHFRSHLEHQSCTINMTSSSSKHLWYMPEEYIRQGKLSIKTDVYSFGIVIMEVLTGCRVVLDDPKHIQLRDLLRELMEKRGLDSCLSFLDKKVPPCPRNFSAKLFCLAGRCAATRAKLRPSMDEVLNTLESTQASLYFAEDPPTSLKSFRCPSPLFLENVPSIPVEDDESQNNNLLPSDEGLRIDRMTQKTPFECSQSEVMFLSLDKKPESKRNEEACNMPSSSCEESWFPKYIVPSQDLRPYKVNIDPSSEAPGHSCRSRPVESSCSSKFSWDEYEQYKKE
Put plainly: Selectivity interaction (KinomeScan (DiscoverX)) EUB0000666a IRAK3. The conditions noted are these: at 10 µM.

The target of test [2] is LIM domain kinase 2 (Homo sapiens) (UniProt P53671). Put plainly: Selectivity interaction (KinomeScan (DiscoverX)) EUB0000607a LIMK2. The following applies: at 10 µM.
Chain of LIM domain kinase 2 (Homo sapiens) (P53671 whole entry, looked up, the tested form may be a part): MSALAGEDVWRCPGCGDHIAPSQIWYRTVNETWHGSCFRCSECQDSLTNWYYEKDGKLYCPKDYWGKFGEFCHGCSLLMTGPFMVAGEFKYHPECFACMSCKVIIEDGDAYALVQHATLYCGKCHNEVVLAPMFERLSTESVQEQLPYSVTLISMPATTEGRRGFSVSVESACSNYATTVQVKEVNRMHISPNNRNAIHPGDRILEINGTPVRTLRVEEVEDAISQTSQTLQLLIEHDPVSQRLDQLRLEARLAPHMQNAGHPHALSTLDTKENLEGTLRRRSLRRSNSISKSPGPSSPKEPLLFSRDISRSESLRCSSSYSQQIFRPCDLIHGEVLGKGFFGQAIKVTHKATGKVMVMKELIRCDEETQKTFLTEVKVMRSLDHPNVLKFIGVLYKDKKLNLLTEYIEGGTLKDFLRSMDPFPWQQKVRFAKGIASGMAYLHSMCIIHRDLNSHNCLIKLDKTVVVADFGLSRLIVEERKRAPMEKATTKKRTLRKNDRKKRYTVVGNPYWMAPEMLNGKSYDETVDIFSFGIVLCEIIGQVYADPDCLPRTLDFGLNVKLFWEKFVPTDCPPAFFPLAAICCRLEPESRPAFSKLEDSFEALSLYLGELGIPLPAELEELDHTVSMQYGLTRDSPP
The subject of test [3] is Epidermal growth factor receptor (Homo sapiens), P00533 [L858R,T790M]. The conditions noted are these: at 10 µM.
For test [4], the target named is T2, Phosphatidylinositol 5-phosphate 4-kinase type-2 gamma (Homo sapiens) (UniProt Q8TBX8).
T2 sequence (whole entry): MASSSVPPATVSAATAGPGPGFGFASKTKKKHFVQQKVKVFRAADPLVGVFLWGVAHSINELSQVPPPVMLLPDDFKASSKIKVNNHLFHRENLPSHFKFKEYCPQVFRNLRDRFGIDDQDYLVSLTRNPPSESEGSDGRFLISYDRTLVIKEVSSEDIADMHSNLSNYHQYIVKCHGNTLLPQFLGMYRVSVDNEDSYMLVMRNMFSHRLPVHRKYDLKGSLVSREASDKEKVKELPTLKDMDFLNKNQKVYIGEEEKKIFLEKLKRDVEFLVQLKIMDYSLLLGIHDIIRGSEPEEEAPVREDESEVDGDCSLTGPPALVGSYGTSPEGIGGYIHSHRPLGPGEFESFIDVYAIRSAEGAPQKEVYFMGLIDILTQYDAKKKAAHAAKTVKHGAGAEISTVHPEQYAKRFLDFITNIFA
The conditions noted are these: at 10 µM.

Test [5] has as its target T3, Tyrosine-protein kinase Mer (Homo sapiens) (UniProt Q12866).
T3 sequence (whole entry): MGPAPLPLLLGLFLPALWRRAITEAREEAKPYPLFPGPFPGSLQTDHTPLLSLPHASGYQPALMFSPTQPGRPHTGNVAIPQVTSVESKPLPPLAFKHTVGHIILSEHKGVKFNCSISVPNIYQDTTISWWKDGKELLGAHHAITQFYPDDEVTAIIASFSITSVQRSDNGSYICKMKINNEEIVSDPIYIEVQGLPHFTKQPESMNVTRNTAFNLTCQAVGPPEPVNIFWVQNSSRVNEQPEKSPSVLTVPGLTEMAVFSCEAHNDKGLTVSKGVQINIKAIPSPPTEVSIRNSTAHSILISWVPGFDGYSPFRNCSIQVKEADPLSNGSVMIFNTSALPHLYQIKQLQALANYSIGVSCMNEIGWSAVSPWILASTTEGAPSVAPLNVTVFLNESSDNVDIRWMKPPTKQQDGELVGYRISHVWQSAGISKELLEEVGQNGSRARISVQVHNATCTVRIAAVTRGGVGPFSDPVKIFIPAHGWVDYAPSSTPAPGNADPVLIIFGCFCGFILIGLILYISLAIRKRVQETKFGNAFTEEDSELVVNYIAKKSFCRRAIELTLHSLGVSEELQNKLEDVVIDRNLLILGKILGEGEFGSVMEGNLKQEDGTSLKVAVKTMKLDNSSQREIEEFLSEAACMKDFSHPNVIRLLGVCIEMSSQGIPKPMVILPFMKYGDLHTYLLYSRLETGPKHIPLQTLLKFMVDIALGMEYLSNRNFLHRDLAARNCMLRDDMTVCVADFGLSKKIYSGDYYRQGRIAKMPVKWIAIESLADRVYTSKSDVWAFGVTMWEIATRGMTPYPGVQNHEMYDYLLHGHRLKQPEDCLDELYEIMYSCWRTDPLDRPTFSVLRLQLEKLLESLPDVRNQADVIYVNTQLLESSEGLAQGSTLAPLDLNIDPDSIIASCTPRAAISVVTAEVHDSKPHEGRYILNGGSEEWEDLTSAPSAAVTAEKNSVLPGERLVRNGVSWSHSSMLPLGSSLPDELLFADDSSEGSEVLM
Put plainly: Selectivity interaction (Kinase screening (Nanosyn)) EUB0000604a MERTK.

Test [6] has as its target T4, Inhibitor of nuclear factor kappa-B kinase subunit beta (Homo sapiens) (UniProt O14920).
T4 sequence (whole entry): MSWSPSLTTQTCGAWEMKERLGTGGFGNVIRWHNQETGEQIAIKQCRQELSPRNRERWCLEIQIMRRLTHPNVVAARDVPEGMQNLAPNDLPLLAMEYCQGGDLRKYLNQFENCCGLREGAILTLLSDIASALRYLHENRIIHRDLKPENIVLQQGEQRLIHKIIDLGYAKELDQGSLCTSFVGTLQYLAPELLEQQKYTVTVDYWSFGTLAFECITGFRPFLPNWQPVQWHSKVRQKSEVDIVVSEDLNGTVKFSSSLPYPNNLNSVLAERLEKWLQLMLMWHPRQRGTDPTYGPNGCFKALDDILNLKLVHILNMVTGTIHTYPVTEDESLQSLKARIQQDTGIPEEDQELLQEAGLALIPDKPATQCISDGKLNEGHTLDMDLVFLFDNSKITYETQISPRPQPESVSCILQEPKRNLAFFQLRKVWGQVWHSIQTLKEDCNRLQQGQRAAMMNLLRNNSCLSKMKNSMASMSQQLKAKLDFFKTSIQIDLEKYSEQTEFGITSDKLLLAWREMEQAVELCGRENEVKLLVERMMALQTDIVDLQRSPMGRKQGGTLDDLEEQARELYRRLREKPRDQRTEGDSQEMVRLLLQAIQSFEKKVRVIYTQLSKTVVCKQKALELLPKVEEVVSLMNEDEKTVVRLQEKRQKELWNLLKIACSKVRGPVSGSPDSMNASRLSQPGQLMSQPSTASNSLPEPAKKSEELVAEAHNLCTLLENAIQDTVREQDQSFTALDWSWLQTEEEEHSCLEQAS
Put plainly: Selectivity interaction (Kinase panel (literature)) EUB0001199aCl IKBKB. The conditions noted are these: at 1 µM.

The target of test [7] is MAP kinase-interacting serine/threonine-protein kinase 2 (Homo sapiens, UniProt Q9HBH9). Put plainly: Selectivity interaction (KinomeScan (DiscoverX)) EUB0000655a MKNK2. The conditions noted are these: at 10 µM.
Chain of MAP kinase-interacting serine/threonine-protein kinase 2 (Q9HBH9 whole entry, looked up): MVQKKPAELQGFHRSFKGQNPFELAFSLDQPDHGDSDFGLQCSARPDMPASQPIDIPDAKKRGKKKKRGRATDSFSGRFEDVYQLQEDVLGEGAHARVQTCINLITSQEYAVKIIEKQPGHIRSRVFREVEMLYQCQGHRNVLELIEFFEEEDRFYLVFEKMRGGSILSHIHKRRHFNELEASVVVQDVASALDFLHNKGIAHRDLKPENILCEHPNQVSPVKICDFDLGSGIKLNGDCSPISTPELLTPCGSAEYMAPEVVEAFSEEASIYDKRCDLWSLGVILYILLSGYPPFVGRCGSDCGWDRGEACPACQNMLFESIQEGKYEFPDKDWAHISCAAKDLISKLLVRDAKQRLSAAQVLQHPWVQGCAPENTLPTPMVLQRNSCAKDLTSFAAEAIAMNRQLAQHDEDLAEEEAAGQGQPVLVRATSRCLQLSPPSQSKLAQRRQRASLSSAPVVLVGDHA

Chain of Epidermal growth factor receptor (Homo sapiens), P00533 [L858R,T790M] (P00533 whole entry T790M/L858R, looked up): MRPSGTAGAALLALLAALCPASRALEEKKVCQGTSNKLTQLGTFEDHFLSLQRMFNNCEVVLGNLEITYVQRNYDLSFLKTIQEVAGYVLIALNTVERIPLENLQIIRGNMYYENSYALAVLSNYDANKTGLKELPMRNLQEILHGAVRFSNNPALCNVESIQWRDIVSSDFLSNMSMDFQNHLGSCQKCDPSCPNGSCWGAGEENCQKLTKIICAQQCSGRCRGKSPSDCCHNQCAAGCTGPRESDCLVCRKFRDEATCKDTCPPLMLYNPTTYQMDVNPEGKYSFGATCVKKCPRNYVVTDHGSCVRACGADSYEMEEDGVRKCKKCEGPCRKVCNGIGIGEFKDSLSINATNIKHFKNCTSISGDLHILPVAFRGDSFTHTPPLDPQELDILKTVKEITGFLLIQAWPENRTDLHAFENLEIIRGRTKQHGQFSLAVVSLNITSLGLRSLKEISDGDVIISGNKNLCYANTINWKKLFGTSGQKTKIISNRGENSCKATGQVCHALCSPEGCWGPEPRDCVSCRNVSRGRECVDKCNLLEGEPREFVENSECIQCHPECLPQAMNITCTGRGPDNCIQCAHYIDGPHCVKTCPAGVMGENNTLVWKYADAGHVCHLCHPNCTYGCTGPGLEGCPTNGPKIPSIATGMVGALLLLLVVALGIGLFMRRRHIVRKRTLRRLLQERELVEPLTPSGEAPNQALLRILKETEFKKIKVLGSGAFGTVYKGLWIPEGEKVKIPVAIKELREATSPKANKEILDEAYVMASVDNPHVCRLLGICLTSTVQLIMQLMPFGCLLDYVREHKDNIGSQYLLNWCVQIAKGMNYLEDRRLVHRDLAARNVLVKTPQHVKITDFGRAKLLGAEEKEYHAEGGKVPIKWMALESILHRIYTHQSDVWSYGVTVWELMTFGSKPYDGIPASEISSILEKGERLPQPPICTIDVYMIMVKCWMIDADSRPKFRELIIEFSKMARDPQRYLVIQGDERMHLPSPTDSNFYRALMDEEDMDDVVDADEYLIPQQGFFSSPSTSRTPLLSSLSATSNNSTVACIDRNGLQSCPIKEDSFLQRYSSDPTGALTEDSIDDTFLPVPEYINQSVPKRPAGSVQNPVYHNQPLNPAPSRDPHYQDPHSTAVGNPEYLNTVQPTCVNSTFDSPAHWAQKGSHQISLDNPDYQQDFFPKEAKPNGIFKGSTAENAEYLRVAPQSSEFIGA

Compound `O=C(NOC[C@H](O)CO)c1ccc(F)c(F)c1Nc1ccc(I)cc1F` displayed a % of control in test [1] of 100%.

`CNC(=O)Nc1ccc(-c2nc(N3CC4CCC(C3)O4)c3cnn(C4CCC5(CC4)OCCO5)c3n2)cc1` displayed a % of control in test [2] of 88%. In the case of `Cc1cc([C@@H](C)Nc2ccccc2C(=O)O)c2nc(N3CCOCC3)cc(=O)n2c1` [AZD-6482], the % of control in test [3] came out at 99%; in test [4], 58%. As for `Cc1cnc(Nc2ccc(F)cc2Cl)nc1-c1c[nH]c(C(=O)N[C@H](CO)c2cccc(Cl)c2)c1`, the % of inhibition in test [5] turned out to be 9%. The compound `CN1Cc2nccc(-c3cn(C)nc3-c3ccc(F)cc3)c2C1=O` gave a % of inhibition in test [6] of 4%. Turning to `CN(C)CCOc1ccc(-c2nc(-c3ccncc3)c(-c3ccc4c(c3)CC/C4=N\O)[nH]2)cc1`, the % of control in test [7] stood at 95%.
